# Data published in patent US20230382888A1, “HDAC INHIBITOR SOLID STATE FORMS” (Viracta Subsidiary, Inc., priority 2020, published 2023).
# Entries after “also recorded” stand apart in the source; their conditions may differ. Counter-ions that a name gives are not always drawn.
# How the values were obtained:
# [1] = Thermodynamic aqueous solubility; assay type: physicochemical; details: for pH of saturated solution: water, after 24 hours equilibration at 25° C.
# Protocol: Aqueous solubility was determined by suspending sufficient compound in 0.5 ml deionized water to give a maximum final concentration of 40 mg/ml of the parent free-form of the compound. The suspension was equilibrated at 25° C., on a Heidolph plate shaker set to 750 rpm for 24 hours. After equilibration, the appearance was noted and the pH of the saturated solution was measured. Samples forming suspensions were centrifuged for 4 min at 13,500 rpm. Samples were then filtered through a glass fiber C filter (particle retention 1.2 μm), before dilution with H2 O as appropriate. Quantitation was by HPLC (see Table 2 for parameters) with reference to a standard solution of approximately 0.15 mg/ml in DMSO. Different volumes of the standard, diluted and undiluted sample solutions were injected. The solubility was calculated using the peak areas determined by integration of the peak found at the same retention time as the principal peak in the standard injection. Analysis was performed on an Agilent HP1100/Infinity II 1260 series system equipped with a diode array detector and using OpenLAB software.
# [2] = Intrinsic dissolution rate (IDR) in FaSSGF; assay type: physicochemical; details: Fasted State Simulated Gastric Fluid
# [3] = Static storage stability at elevated temperature/humidity (XRPD, HPLC); assay type: physicochemical; details: for HPLC purity after static storage / Appearance after static storage: 1 week; for Solid form by XRPD after static storage: 7 days (1 week)
# [4] = assay type: physicochemical
# Description: There was insufficient residue to characterize these further.
# [5] = Gravimetric vapour sorption (GVS); assay type: physicochemical; details: for Hygroscopicity by GVS: 25° C.; for XRPD post-GVS (solid form): residue after GVS; for Water uptake, first sorption cycle: 40-90% RH; for Starting water content in GVS: at 40% RH
# Protocol: Sorption isotherms were obtained using a SMS DVS Intrinsic moisture sorption analyser, controlled by DVS Intrinsic Control software. The sample temperature was maintained at 25° C. by the instrument controls. The humidity was controlled by mixing streams of dry and wet nitrogen, with a total flow rate of 200 ml/min. The relative humidity was measured by a calibrated Rotronic probe (dynamic range of 1.0 — 100% RH), located near the sample. The weight change, (mass relaxation) of the sample as a function of % RH was constantly monitored by a microbalance (accuracy ±0.005 mg). Typically, 20-30 mg of sample was placed in a tared mesh stainless steel basket under ambient conditions. The sample was loaded and unloaded at 40% RH and 25° C. (typical room conditions). A moisture sorption isotherm was performed as outlined below (2 scans per complete cycle). The standard isotherm was performed at 25° C. at 10% RH intervals over a 0-90% RH range. Typically, a double cycle (4 scans) was carried out. Data analysis was carried out within Microsoft Excel using the DVS Analysis Suite. [table]
smiles,measurement,setting,value
"O=C(NO)c1cnc(N2C[C@@H]3[C@H](C2)[C@H]3NCc2ccc3cc(F)ccc3n2)nc1 [Free Base Form A, N-hydroxy 2-{6-[(6-fluoro-quinolin-2-ylmethyl)-amino]-3-aza-bicyclo[3.1.0]hex-3-yl}pyrimidine-5-carboxamide]",solubility at 24 h,"[1]; thermodynamic from solid, deionized water, 25° C., 24 hours, maximum final concentration 40 mg/ml of parent free-form",1 µg/mL
same,pH of saturated solution,[1],(pH = 7.4)
same,IDR in FaSSGF,[2],1.1 mg/min/cm^2
"O=C(NO)c1cnc(N2C[C@@H]3[C@H](C2)[C@H]3NCc2ccc3cc(F)ccc3n2)nc1 [Free Base Form B, N-hydroxy 2-{6-[(6-fluoro-quinolin-2-ylmethyl)-amino]-3-aza-bicyclo[3.1.0]hex-3-yl}pyrimidine-5-carboxamide]",Solubility in water,"[1]; deionized water, 25° C., 24 hours, maximum final concentration 40 mg/ml of parent free-form",1 µg/mL
same,pH of saturated solution,[1],(pH = 7.4)
same,IDR in FaSSGF,[2],1.8 mg/min/cm^2
"O=C(NO)c1cnc(N2C[C@@H]3[C@H](C2)[C@H]3NCc2ccc3cc(F)ccc3n2)nc1 [Mesylate Form 5, N-hydroxy 2-{6-[(6-fluoro-quinolin-2-ylmethyl)-amino]-3-aza-bicyclo[3.1.0]hex-3-yl}pyrimidine-5-carboxamide]",HPLC purity after static storage,[3]; 25° C./97% RH,99.5%
same,Solid form by XRPD after static storage,[3]; 25° C./97% RH,remained as Mesylate Form 5; also recorded: Unchanged: Mesylate Form 5
same,HPLC purity after static storage,[3]; 40° C./75% RH,99.5%
same,Solid form by XRPD after static storage,[3]; 40° C./75% RH,remained as Mesylate Form 5; also recorded: Unchanged: Mesylate Form 5
same,Solubility residue (solid form),[4],new solubility residue patterns
same,Hygroscopicity by GVS,[5],hygroscopic
same,XRPD post-GVS (solid form),[5],remaining unchanged; also recorded: stable after GVS analysis; also recorded: XRPD Post-GVS: Mesylate Form 5
"O=C(NO)c1cnc(N2CC3C(C2)C3NCc2ccc3cc(F)ccc3n2)nc1 (stereo not shown) [amorphous mesylate salt, N-hydroxy 2-{6-[(6-fluoro-quinolin-2-ylmethyl)-amino]-3-aza-bicyclo[3.1.0]hex-3-yl}pyrimidine-5-carboxamide]",Solid form by XRPD after static storage,[3]; 25° C./97% RH,"Amorphous, with low-level peak at 3.7° 2θ"
same,Solid form by XRPD after static storage,"[3]; 25° C./97% RH, listed as amorphous",largely amorphous
same,Solid form by XRPD after static storage,[3]; 40° C./75% RH,"Amorphous, with low-level peak at 3.7° 2θ"
same,Solid form by XRPD after static storage,"[3]; 40° C./75% RH, listed as amorphous",largely amorphous
"O=C(NO)c1cnc(N2CC3C(C2)C3NCc2ccc3cc(F)ccc3n2)nc1 (stereo not shown) [Mesylate Form 8, N-hydroxy 2-{6-[(6-fluoro-quinolin-2-ylmethyl)-amino]-3-aza-bicyclo[3.1.0]hex-3-yl}pyrimidine-5-carboxamide]",Solid form by XRPD after static storage,[3]; 25° C./97% RH,converted to Mesylate Form 1
same,Solid form by XRPD after static storage,[3]; 40° C./75% RH,converted to Mesylate Form 1
"O=C(NO)c1cnc(N2CC3C(C2)C3NCc2ccc3cc(F)ccc3n2)nc1 (stereo not shown) [Mesylate Form 9, N-hydroxy 2-{6-[(6-fluoro-quinolin-2-ylmethyl)-amino]-3-aza-bicyclo[3.1.0]hex-3-yl}pyrimidine-5-carboxamide]",Appearance after static storage,[3]; 25° C./97% RH,Sample appeared wet-white solid still present
same,Solid form by XRPD after static storage,[3]; 25° C./97% RH,Poorly crystalline-Mesylate Form 1
same,Appearance after static storage,[3]; 40° C./75% RH,color change to yellow; also recorded: Sample appeared ‘damp’-yellow solid present
same,Solid form by XRPD after static storage,[3]; 40° C./75% RH,Mesylate Form 1
"O=C(NO)c1cnc(N2C[C@@H]3[C@H](C2)[C@H]3NCc2ccc3cc(F)ccc3n2)nc1 [Mesylate Form 4, N-hydroxy 2-{6-[(6-fluoro-quinolin-2-ylmethyl)-amino]-3-aza-bicyclo[3.1.0]hex-3-yl}pyrimidine-5-carboxamide]",HPLC purity after static storage,[3]; 25° C./97% RH,99.5%
same,Solid form by XRPD after static storage,[3]; 25° C./97% RH,conversion to Mesylate Form 1; also recorded: converted to Mesylate Form 1
same,HPLC purity after static storage,[3]; 40° C./75% RH,99.4%
same,Thermodynamic solubility in FaSSGF,[4],24000 µg/mL
same,"Water uptake, first sorption cycle",[5],0.7%
same,Starting water content in GVS,[5],9.4%
same,"Gradual water loss, desorption cycle 1",[5]; down to 20% RH,0.8%
same,XRPD post-GVS (solid form),[5],conversion to Mesylate Form 1; also recorded: Post-GVS: Converted to Mesylate Form 1 by XRPD
"O=C(NO)c1cnc(N2CC3C(C2)C3NCc2ccc3cc(F)ccc3n2)nc1 (stereo not shown) [Mesylate Form 7, N-hydroxy 2-{6-[(6-fluoro-quinolin-2-ylmethyl)-amino]-3-aza-bicyclo[3.1.0]hex-3-yl}pyrimidine-5-carboxamide]",Solid form by XRPD after static storage,[3]; 25° C./97% RH,converted to Mesylate Form 1
same,Solid form by XRPD after static storage,[3]; 40° C./75% RH,converted to Mesylate Form 1
"O=C(NO)c1cnc(N2C[C@@H]3[C@H](C2)[C@H]3NCc2ccc3cc(F)ccc3n2)nc1 [Compound 1, N-hydroxy-2-{6-[(6-fluoro-quinolin-2-ylmethyl)-amino]-3-aza-bicyclo[3.1.0]hex-3-yl}pyrimidine-5-carboxamide]",Solubility in water,"[1]; deionized water, 25° C., 24 hours, maximum final concentration 40 mg/ml of parent free-form, listed as Free base",essentially insoluble in water
"O=C(NO)c1cnc(N2CC3C(C2)C3NCc2ccc3cc(F)ccc3n2)nc1 (stereo not shown) [Mesylate Form 6, N-hydroxy 2-{6-[(6-fluoro-quinolin-2-ylmethyl)-amino]-3-aza-bicyclo[3.1.0]hex-3-yl}pyrimidine-5-carboxamide]",Solid form by XRPD after static storage,[3]; 25° C./97% RH,converted to Mesylate Form 1
same,Solid form by XRPD after static storage,[3]; 40° C./75% RH,converted to Mesylate Form 1
"O=C(NO)c1cnc(N2C[C@@H]3[C@H](C2)[C@H]3NCc2ccc3cc(F)ccc3n2)nc1 [Mesylate Form 2, N-hydroxy 2-{6-[(6-fluoro-quinolin-2-ylmethyl)-amino]-3-aza-bicyclo[3.1.0]hex-3-yl}pyrimidine-5-carboxamide]",Solid form by XRPD after static storage,[3]; 25° C./97% RH,unchanged; also recorded: Mesylate Form 2
same,Solid form by XRPD after static storage,"[3]; 25° C./97% RH, listed as Form 2",stable after 1 week
same,Solid form by XRPD after static storage,[3]; 40° C./75% RH,unchanged; also recorded: Mesylate Form 2
same,Solid form by XRPD after static storage,"[3]; 40° C./75% RH, listed as Form 2",stable after 1 week
same,Hygroscopicity by GVS,[5],slightly hygroscopic
same,Hygroscopicity by GVS,[5]; listed as Form 2,slightly hygroscopic
same,XRPD post-GVS (solid form),[5],unchanged; also recorded: XRPD Post-GVS: Mesylate Form 2
"O=C(NO)c1cnc(N2C[C@@H]3[C@H](C2)[C@H]3NCc2ccc3cc(F)ccc3n2)nc1 [Mesylate Form 3, N-hydroxy 2-{6-[(6-fluoro-quinolin-2-ylmethyl)-amino]-3-aza-bicyclo[3.1.0]hex-3-yl}pyrimidine-5-carboxamide]",HPLC purity after static storage,[3]; 25° C./97% RH,96.6%
same,Solid form by XRPD after static storage,[3]; 25° C./97% RH,remained unchanged; also recorded: Mesylate Form 3
same,Solid form by XRPD after static storage,"[3]; 25° C./97% RH, listed as Form 3",remained as Mesylate Form 3
same,HPLC purity after static storage,[3]; 40° C./75% RH,97.0%
same,Solid form by XRPD after static storage,[3]; 40° C./75% RH,conversion to the sesquihydrate Mesylate Form 5
same,Solid form by XRPD after static storage,"[3]; 40° C./75% RH, listed as Form 3",convert to Mesylate Form 5
same,Solubility residue (solid form),[4],new solubility residue patterns
same,"Water loss, desorption cycle 1",[5]; 30-20% RH,Desorption Cycle 1 22% water loss from 30-20% RH
same,"Water uptake, first sorption cycle",[5],2%
same,Water content on desorption cycle 1,[5]; at 30% RH,24.3%
same,Starting water content in GVS,[5],25.1%
same,XRPD post-GVS (solid form),[5],XRPD Post-GVS: Poorly crystalline broad reflections may match
